{"source": "paper PMC6705855", "about": "“Computational and experimental elucidation of Plasmodium falciparum phosphoethanolamine methyltransferase inhibitors: Pivotal drug target” (PLoS ONE, 2019)", "molecules": {"B1": {"name": "Phosphoethanolamine methyltransferase (PfPMT) (Plasmodium falciparum 3D7) (protein)", "chain": "MTLIENLNSDKTFLENNQYTDEGVKVYEFIFGENYISSGGLEATKKILSDIELNENSKVLDIGSGLGGGCMYINEKYGAHTHGIDICSNIVNMANERVSGNNKIIFEANDILTKEFPENNFDLIYSRDAILHLSLENKNKLFQKCYKWLKPTGTLLITDYCATEKENWDDEFKEYVKQRKYTLITVEEYADILTACNFKNVVSKDLSDYWNQLLEVEHKYLHENKEEFLKLFSEKKFISLDDGWSRKIKDSKRKMQRWGYFKATKN", "notes": "recombinant PfPMT expressed from pET-24a in BL21 (DE3), ~30 kDa"}}, "key": {"[1]": {"target": "T1, Phosphoethanolamine methyltransferase (PfPMT) (Plasmodium falciparum, UniProt Q8IDQ9)", "T1 construct": "gene PMT; recombinant PfPMT expressed from pET-24a in BL21 (DE3), ~30 kDa", "T1 sequence (Q8IDQ9 1-266)": "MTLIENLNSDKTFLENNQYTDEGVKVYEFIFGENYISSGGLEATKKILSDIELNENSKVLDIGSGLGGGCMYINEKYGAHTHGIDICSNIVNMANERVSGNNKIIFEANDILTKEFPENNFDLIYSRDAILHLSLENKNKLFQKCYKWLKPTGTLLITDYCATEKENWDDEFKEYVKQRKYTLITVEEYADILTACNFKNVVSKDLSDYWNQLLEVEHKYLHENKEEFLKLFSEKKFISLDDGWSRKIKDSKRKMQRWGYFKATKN", "test": "enzyme-coupled SAM methyltransferase colorimetric assay ([…] nm), Michaelis-Menten kinetics with varied pEth", "format": "biochemical"}, "[2]": {"substrate": "NCCOP(=O)(O)O", "test": "purified protein", "format": "biochemical, Plasmodium falciparum", "details": "SAM substrate (phosphobase) site"}}, "note": "Read-outs that look alike come from different tables or passages of the source.", "data": [{"molecule": "NC(Cc1cc(=O)nc(-c2ccccn2)[nH]1)c1ccc(F)cc1", "note": "(stereo not drawn) [ASN.1, 6-[Amino-2-(4-fluoro-phenyl)-ethyl]-pyridin-2-yl-1H-pyrimidin-4-one]", "values": [{"measurement": "Ki", "setting": "[1]", "result": 1200, "unit": "nM"}]}, {"molecule": "COc1ccc(CCNC(=O)CNCC2CCCO2)cc1OC", "note": "(stereo not drawn) [ASN.3, N-[2-(3,4-Dimethoxy-phenyl)-ethyl]-2-[(tetrahydro-furan-2-ylmethyl)-amino]-acetamide]", "values": [{"measurement": "Ki", "setting": "[1]; read-out: Ki", "result": 2200, "unit": "nM"}]}, {"molecule": "B1", "values": [{"measurement": "Km", "setting": "[2]", "result": 52.4, "unit": "µM"}]}]}
